Measured values published in PubChem BioAssay (NCI).
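Tested at 5 concentrations; 48 h exposure; 96-well plates; endpoints linearly interpolated, else capped at highest concentration. TGI marks complete inhibition of growth.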

Tests used:
Test in all cases: growth of human tumour cells (NCI), 48 h
[1] = tested on: SNB-75 CNS
[2] = tested on: CCRF-CEM leukemia
[3] = tested on: KM12 colon
[4] = tested on: K-562 leukemia
[5] = tested on: DMS 273 small cell lung
[6] = tested on: NCI-H522 lung
[7] = tested on: HL-60(TB) leukemia
[8] = tested on: CAKI-1 renal
[9] = tested on: SR leukemia
[10] = tested on: OVCAR-4 ovarian
[11] = tested on: SNB-78 CNS
[12] = tested on: HOP-92 NSCLC
[13] = tested on: OVCAR-5 ovarian
[14] = tested on: SK-OV-3 ovarian
[15] = tested on: SF-539 CNS
[16] = tested on: SN12C renal
[17] = tested on: NCI-H460 lung
[18] = tested on: MOLT-4 leukemia
[19] = tested on: HCT-116 colon
[20] = tested on: RXF 393 renal
[21] = tested on: ACHN renal
[22] = tested on: COLO 205 colon
[23] = tested on: SK-MEL-28 melanoma
[24] = tested on: TK-10 renal
[25] = tested on: SF-295 CNS
[26] = tested on: SK-MEL-2 melanoma
[27] = tested on: HT29 colon
[28] = tested on: UO-31 renal
[29] = tested on: SK-MEL-5 melanoma
[30] = tested on: HCC-2998 colon
[31] = tested on: SNB-19 CNS
[32] = tested on: EKVX NSCLC
[33] = tested on: DLD-1 colon
[34] = tested on: DMS 114 small cell lung
[35] = tested on: SW-620 colon
[36] = tested on: SF-268 CNS
[37] = tested on: A498 renal
[38] = tested on: U251 CNS
[39] = tested on: M14 melanoma
[40] = tested on: UACC-257 melanoma
[41] = tested on: M19-MEL melanoma
[42] = tested on: HOP-62 NSCLC
[43] = tested on: LXFL 529 NSCLC
[44] = tested on: UACC-62 melanoma
[45] = tested on: XF 498 CNS
[46] = tested on: OVCAR-8 ovarian
[47] = tested on: NCI-H23 lung
[48] = tested on: OVCAR-3 ovarian
[49] = tested on: A549 NSCLC
[50] = tested on: RPMI-8226 leukemia
[51] = tested on: IGROV1 ovarian
[52] = tested on: HCT-15 colon
[53] = tested on: KM20L2 colon
[54] = tested on: MALME-3M melanoma
[55] = tested on: NCI-H226 lung
[56] = tested on: 786-0 renal
[57] = tested on: LOX IMVI melanoma
[58] = tested on: HOP-18 NSCLC

SMILES: C=CCN1/C(=C(\C#N)c2nc3ccccc3[nH]2)Sc2c1nc[nH]c2=O
- TGI [1]: > 100 µM
- TGI [2]: > 100 µM
- TGI [3]: > 100 µM
- TGI [4]: > 100 µM
- TGI [5]: > 100 µM
- TGI [6]: > 100 µM
- TGI [7]: > 100 µM
- TGI [8]: > 100 µM
- TGI [9]: > 100 µM
- TGI [10]: > 100 µM
- TGI [11]: > 100 µM
- TGI [12]: > 100 µM
- TGI [13]: > 100 µM
- TGI [14]: > 100 µM
- TGI [15]: > 100 µM
- TGI [16]: > 100 µM
- TGI [17]: > 100 µM
- TGI [18]: > 100 µM
- TGI [19]: > 100 µM
- TGI [20]: > 100 µM
- TGI [21]: > 100 µM
- TGI [22]: > 100 µM
- TGI [23]: > 100 µM
- TGI [24]: > 100 µM
- TGI [25]: > 100 µM
- TGI [26]: > 100 µM
- TGI [27]: > 100 µM
- TGI [28]: > 100 µM
- TGI [29]: > 100 µM
- TGI [30]: > 100 µM
- TGI [31]: > 100 µM
- TGI [32]: > 100 µM
- TGI [33]: > 100 µM
- TGI [34]: > 100 µM
- TGI [35]: > 100 µM
- TGI [36]: > 100 µM
- TGI [37]: > 100 µM
- TGI [38]: > 100 µM
- TGI [39]: > 100 µM
- TGI [40]: > 100 µM
- TGI [41]: > 100 µM
- TGI [42]: > 100 µM
- TGI [43]: > 100 µM
- TGI [44]: > 100 µM
- TGI [45]: > 100 µM
- TGI [46]: > 100 µM
- TGI [47]: > 100 µM
- TGI [48]: > 100 µM
- TGI [49]: > 100 µM
- TGI [50]: > 100 µM
- TGI [51]: > 100 µM
- TGI [52]: > 100 µM
- TGI [53]: > 100 µM
- TGI [54]: > 100 µM

SMILES: O=C/C1=C/C2=Cc3ccccc3C=C(/C=C(/C=O)C1)C2
- TGI [1]: 80 µM
- TGI [2]: 74.9 µM
- TGI [3]: > 100 µM
- TGI [4]: > 100 µM
- TGI [5]: > 100 µM
- TGI [6]: > 100 µM
- TGI [7]: > 100 µM
- TGI [8]: > 100 µM
- TGI [10]: > 100 µM
- TGI [11]: > 100 µM
- TGI [12]: 87.9 µM
- TGI [13]: > 100 µM
- TGI [15]: > 100 µM
- TGI [16]: > 100 µM
- TGI [17]: > 100 µM
- TGI [18]: 90.9 µM
- TGI [19]: 48.3 µM
- TGI [20]: 88.6 µM
- TGI [21]: > 100 µM
- TGI [22]: > 100 µM
- TGI [23]: > 100 µM
- TGI [55]: > 100 µM
- TGI [24]: > 100 µM
- TGI [25]: > 100 µM
- TGI [26]: > 100 µM
- TGI [27]: > 100 µM
- TGI [28]: > 100 µM
- TGI [29]: > 100 µM
- TGI [30]: > 100 µM
- TGI [31]: > 100 µM
- TGI [32]: > 100 µM
- TGI [33]: > 100 µM
- TGI [34]: > 100 µM
- TGI [35]: > 100 µM
- TGI [56]: > 100 µM
- TGI [36]: > 100 µM
- TGI [37]: > 100 µM
- TGI [38]: > 100 µM
- TGI [39]: > 100 µM
- TGI [40]: > 100 µM
- TGI [41]: > 100 µM
- TGI [42]: > 100 µM
- TGI [43]: > 100 µM
- TGI [44]: > 100 µM
- TGI [45]: > 100 µM
- TGI [46]: > 100 µM
- TGI [47]: > 100 µM
- TGI [48]: 98.4 µM
- TGI [49]: > 100 µM
- TGI [50]: > 100 µM
- TGI [51]: > 100 µM
- TGI [57]: > 100 µM
- TGI [52]: > 100 µM
- TGI [53]: > 100 µM
- TGI [54]: > 100 µM

SMILES: O=C(/C=C\c1cccc2ccccc12)c1ccc(F)cc1
- TGI [1]: 75.3 µM
- TGI [2]: 41.8 µM
- TGI [3]: 28.8 µM
- TGI [4]: 33.2 µM
- TGI [5]: 29.4 µM
- TGI [6]: 40.2 µM
- TGI [7]: 53 µM
- TGI [8]: 35.3 µM
- TGI [10]: 36.9 µM
- TGI [11]: 38.5 µM
- TGI [12]: 39.8 µM
- TGI [13]: 33.2 µM
- TGI [14]: 58.3 µM
- TGI [15]: 41.4 µM
- TGI [16]: 32.3 µM
- TGI [17]: 33.2 µM
- TGI [18]: 74.2 µM
- TGI [19]: 26.8 µM
- TGI [21]: 30.8 µM
- TGI [22]: 35.3 µM
- TGI [23]: 26.4 µM
- TGI [55]: > 100 µM
- TGI [24]: 37.4 µM
- TGI [25]: 41.1 µM
- TGI [58]: 28.2 µM
- TGI [27]: 36.6 µM
- TGI [28]: 32.4 µM
- TGI [29]: 33 µM
- TGI [30]: 35.8 µM
- TGI [31]: 31 µM
- TGI [32]: 35.2 µM
- TGI [33]: 37.6 µM
- TGI [34]: 29.5 µM
- TGI [35]: 20.4 µM
- TGI [56]: 32.1 µM
- TGI [36]: 30.8 µM
- TGI [37]: > 100 µM
- TGI [38]: 29.9 µM
- TGI [39]: 29.9 µM
- TGI [40]: 34.7 µM
- TGI [41]: 39.4 µM
- TGI [42]: > 100 µM
- TGI [43]: 30.8 µM
- TGI [44]: 27.5 µM
- TGI [46]: 28.4 µM
- TGI [47]: 45.1 µM
- TGI [48]: 30.9 µM
- TGI [49]: 81.2 µM
- TGI [51]: 29.4 µM
- TGI [52]: 31.8 µM
- TGI [53]: 31.1 µM
- TGI [54]: 32.1 µM

SMILES: CC(C)C12Cc3c(ccc4ccccc34)OC1(C)Oc1ccc3ccccc3c1C2 (centres undefined)
- TGI [1]: > 100 µM
- TGI [2]: > 100 µM
- TGI [3]: > 100 µM
- TGI [4]: > 100 µM
- TGI [5]: > 100 µM
- TGI [6]: > 100 µM
- TGI [8]: > 100 µM
- TGI [9]: > 100 µM
- TGI [10]: > 100 µM
- TGI [11]: > 100 µM
- TGI [12]: > 100 µM
- TGI [13]: > 100 µM
- TGI [14]: > 100 µM
- TGI [15]: > 100 µM
- TGI [16]: > 100 µM
- TGI [17]: > 100 µM
- TGI [18]: > 100 µM
- TGI [19]: > 100 µM
- TGI [20]: > 100 µM
- TGI [21]: > 100 µM
- TGI [22]: > 100 µM
- TGI [55]: > 100 µM
- TGI [24]: > 100 µM
- TGI [25]: > 100 µM
- TGI [26]: > 100 µM
- TGI [27]: > 100 µM
- TGI [28]: > 100 µM
- TGI [29]: > 100 µM
- TGI [31]: > 100 µM
- TGI [32]: > 100 µM
- TGI [33]: > 100 µM
- TGI [34]: > 100 µM
- TGI [35]: > 100 µM
- TGI [56]: > 100 µM
- TGI [36]: > 100 µM
- TGI [38]: > 100 µM
- TGI [39]: > 100 µM
- TGI [43]: > 100 µM
- TGI [44]: > 100 µM
- TGI [45]: > 100 µM
- TGI [46]: > 100 µM
- TGI [47]: > 100 µM
- TGI [48]: > 100 µM
- TGI [49]: > 100 µM
- TGI [51]: > 100 µM
- TGI [57]: > 100 µM
- TGI [53]: > 100 µM
- TGI [54]: > 100 µM
